Laboratory results from PubChem BioAssay (NCI).
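Results reflect a 48-hour exposure of cells in 96-well plates to compound at five concentrations. TGI marks complete inhibition of growth.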

How the values were obtained:
Test in all cases: growth of human tumour cells (NCI), 48 h
786-0 renal = system: 786-0 renal
A498 renal = system: A498 renal
A549 NSCLC = system: A549 NSCLC
ACHN renal = system: ACHN renal
CAKI-1 renal = system: CAKI-1 renal
CCRF-CEM leukemia = system: CCRF-CEM leukemia
COLO 205 colon = system: COLO 205 colon
DLD-1 colon = system: DLD-1 colon
DMS 273 small cell lung = system: DMS 273 small cell lung
EKVX NSCLC = system: EKVX NSCLC
HCC-2998 colon = system: HCC-2998 colon
HCT-15 colon = system: HCT-15 colon
HL-60(TB) leukemia = system: HL-60(TB) leukemia
HOP-18 NSCLC = system: HOP-18 NSCLC
HOP-62 NSCLC = system: HOP-62 NSCLC
HOP-92 NSCLC = system: HOP-92 NSCLC
HT29 colon = system: HT29 colon
IGROV1 ovarian = system: IGROV1 ovarian
K-562 leukemia = system: K-562 leukemia
KM12 colon = system: KM12 colon
KM20L2 colon = system: KM20L2 colon
LOX IMVI melanoma = system: LOX IMVI melanoma
LXFL 529 NSCLC = system: LXFL 529 NSCLC
M14 melanoma = system: M14 melanoma
M19-MEL melanoma = system: M19-MEL melanoma
MALME-3M melanoma = system: MALME-3M melanoma
MOLT-4 leukemia = system: MOLT-4 leukemia
NCI-H226 lung = system: NCI-H226 lung
NCI-H23 lung = system: NCI-H23 lung
NCI-H460 lung = system: NCI-H460 lung
OVCAR-3 ovarian = system: OVCAR-3 ovarian
OVCAR-4 ovarian = system: OVCAR-4 ovarian
OVCAR-5 ovarian = system: OVCAR-5 ovarian
OVCAR-8 ovarian = system: OVCAR-8 ovarian
RPMI-8226 leukemia = system: RPMI-8226 leukemia
SF-268 CNS = system: SF-268 CNS
SF-295 CNS = system: SF-295 CNS
SF-539 CNS = system: SF-539 CNS
SK-MEL-2 melanoma = system: SK-MEL-2 melanoma
SK-MEL-28 melanoma = system: SK-MEL-28 melanoma
SK-MEL-5 melanoma = system: SK-MEL-5 melanoma
SK-OV-3 ovarian = system: SK-OV-3 ovarian
SN12C renal = system: SN12C renal
SNB-19 CNS = system: SNB-19 CNS
SNB-75 CNS = system: SNB-75 CNS
SNB-78 CNS = system: SNB-78 CNS
SW-620 colon = system: SW-620 colon
TK-10 renal = system: TK-10 renal
U251 CNS = system: U251 CNS
UACC-257 melanoma = system: UACC-257 melanoma
UACC-62 melanoma = system: UACC-62 melanoma
UO-31 renal = system: UO-31 renal
XF 498 CNS = system: XF 498 CNS
HCT-116 colon = system: HCT-116 colon
NCI-H522 lung = system: NCI-H522 lung
RXF 393 renal = system: RXF 393 renal
SR leukemia = system: SR leukemia

Compound: Cc1ccc2nc(NC(=O)C(=O)CC(=O)c3cccc4ccccc34)sc2c1
- TGI (786-0 renal): 39.3 µM
- TGI (A498 renal): > 100 µM
- TGI (A549 NSCLC): > 100 µM
- TGI (ACHN renal): > 100 µM
- TGI (CAKI-1 renal): 78 µM
- TGI (CCRF-CEM leukemia): > 100 µM
- TGI (COLO 205 colon): > 100 µM
- TGI (DLD-1 colon): > 100 µM
- TGI (DMS 273 small cell lung): > 100 µM
- TGI (EKVX NSCLC): > 100 µM
- TGI (HCC-2998 colon): > 100 µM
- TGI (HCT-15 colon): > 100 µM
- TGI (HL-60(TB) leukemia): > 100 µM
- TGI (HOP-18 NSCLC): > 100 µM
- TGI (HOP-62 NSCLC): 56.9 µM
- TGI (HOP-92 NSCLC): 69.9 µM
- TGI (HT29 colon): > 100 µM
- TGI (IGROV1 ovarian): > 100 µM
- TGI (K-562 leukemia): > 100 µM
- TGI (KM12 colon): > 100 µM
- TGI (KM20L2 colon): > 100 µM
- TGI (LOX IMVI melanoma): > 100 µM
- TGI (LXFL 529 NSCLC): > 100 µM
- TGI (M14 melanoma): 44.2 µM
- TGI (M19-MEL melanoma): > 100 µM
- TGI (MALME-3M melanoma): 70.2 µM
- TGI (MOLT-4 leukemia): > 100 µM
- TGI (NCI-H226 lung): > 100 µM
- TGI (NCI-H23 lung): > 100 µM
- TGI (NCI-H460 lung): > 100 µM
- TGI (OVCAR-3 ovarian): 49.6 µM
- TGI (OVCAR-4 ovarian): 32.1 µM
- TGI (OVCAR-5 ovarian): > 100 µM
- TGI (OVCAR-8 ovarian): 56.7 µM
- TGI (RPMI-8226 leukemia): > 100 µM
- TGI (SF-268 CNS): > 100 µM
- TGI (SF-295 CNS): 48.4 µM
- TGI (SF-539 CNS): 61.6 µM
- TGI (SK-MEL-2 melanoma): > 100 µM
- TGI (SK-MEL-28 melanoma): > 100 µM
- TGI (SK-MEL-5 melanoma): 55.4 µM
- TGI (SK-OV-3 ovarian): 36.6 µM
- TGI (SN12C renal): > 100 µM
- TGI (SNB-19 CNS): > 100 µM
- TGI (SNB-75 CNS): 36.5 µM
- TGI (SNB-78 CNS): > 100 µM
- TGI (SW-620 colon): > 100 µM
- TGI (TK-10 renal): 44.6 µM
- TGI (U251 CNS): 49.7 µM
- TGI (UACC-257 melanoma): 82.2 µM
- TGI (UACC-62 melanoma): 86.8 µM
- TGI (UO-31 renal): > 100 µM
- TGI (XF 498 CNS): > 100 µM

Compound: CC(C)[Si](OCC1CC(C#N)OC(C)(C)O1)(C(C)C)C(C)C (centres undefined)
- TGI (786-0 renal): 35.2 µM
- TGI (A498 renal): 19.1 µM
- TGI (A549 NSCLC): > 100 µM
- TGI (ACHN renal): 29.4 µM
- TGI (CAKI-1 renal): 69.5 µM
- TGI (CCRF-CEM leukemia): 39.1 µM
- TGI (COLO 205 colon): 31.7 µM
- TGI (DLD-1 colon): > 100 µM
- TGI (DMS 273 small cell lung): 35.8 µM
- TGI (EKVX NSCLC): 66 µM
- TGI (HCC-2998 colon): 38.4 µM
- TGI (HCT-116 colon): 30.1 µM
- TGI (HCT-15 colon): 79 µM
- TGI (HL-60(TB) leukemia): 29.3 µM
- TGI (HOP-18 NSCLC): > 100 µM
- TGI (HOP-62 NSCLC): 44.3 µM
- TGI (HOP-92 NSCLC): 57.2 µM
- TGI (HT29 colon): 37.5 µM
- TGI (IGROV1 ovarian): > 100 µM
- TGI (K-562 leukemia): 37.9 µM
- TGI (KM12 colon): 35.9 µM
- TGI (KM20L2 colon): 65.8 µM
- TGI (LOX IMVI melanoma): 33.7 µM
- TGI (M14 melanoma): 48.4 µM
- TGI (M19-MEL melanoma): 76.9 µM
- TGI (MALME-3M melanoma): 57.6 µM
- TGI (MOLT-4 leukemia): 41.1 µM
- TGI (NCI-H226 lung): 35 µM
- TGI (NCI-H23 lung): 65.8 µM
- TGI (NCI-H460 lung): 30.8 µM
- TGI (NCI-H522 lung): 43.5 µM
- TGI (OVCAR-3 ovarian): 29.4 µM
- TGI (OVCAR-4 ovarian): > 100 µM
- TGI (OVCAR-5 ovarian): > 100 µM
- TGI (OVCAR-8 ovarian): 48 µM
- TGI (RPMI-8226 leukemia): 33.8 µM
- TGI (RXF 393 renal): 31.9 µM
- TGI (SF-268 CNS): 82.7 µM
- TGI (SF-295 CNS): 29.3 µM
- TGI (SF-539 CNS): 79 µM
- TGI (SK-MEL-2 melanoma): 30.6 µM
- TGI (SK-MEL-28 melanoma): > 100 µM
- TGI (SK-MEL-5 melanoma): 33 µM
- TGI (SK-OV-3 ovarian): 73.4 µM
- TGI (SN12C renal): > 100 µM
- TGI (SNB-19 CNS): 50.8 µM
- TGI (SNB-75 CNS): > 100 µM
- TGI (SNB-78 CNS): 52.1 µM
- TGI (SR leukemia): 41.5 µM
- TGI (SW-620 colon): 36 µM
- TGI (TK-10 renal): > 100 µM
- TGI (U251 CNS): 30 µM
- TGI (UACC-257 melanoma): 42.7 µM
- TGI (UACC-62 melanoma): > 100 µM
- TGI (UO-31 renal): 40.9 µM
- TGI (XF 498 CNS): 37 µM
